≈ marks a conversion by molar mass, not a printed value. Positions of bridges follow the written chain, without caps; N, C: chain ends. Non-standard residues stand in square brackets, D forms with d. Residues, ends and D or L forms follow the SMILES beside them. Groups on a side chain read outwards from the residue. Chains are numbered I, II in the order given. *: point of attachment. Decanoyl = CCCCCCCCCC(=O)*; Octanoyl = CCCCCCCC(=O)*; Dab = NCC[C@H](N)C(=O)O; Hexanoyl = CCCCCC(=O)*
Tests used:
Type in all cases: cell-based
[1] = system: Pseudomonas aeruginosa (strain PA01); test: microbe, parasite or virus in culture; details: strain
Method in brief: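 Broth microdilution MIC against P. aeruginosa PAO1 in LB: peptides serially diluted by ⅔, bacteria added at OD600 0.001 and incubated 18–24 h at 37 °C. MTT added; MIC is the lowest concentration preventing visible growth.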

[2] = system: Escherichia coli (strain DH5α); details: DH5α
Method in brief: (§1)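 Broth microdilution MIC in LB; overnight cultures diluted to OD600 0.001 and mixed 1:1 with ⅔-serially diluted samples (stock 1 mg mL^−1 in H2O), 37° C for 18-24 h. MTT (0.1%) added; MIC read by eye as lowest concentration inhibiting visible growth (yellow).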

[3] = system: Bacillus subtilis (strain BR151); details: strain BR151
Method in brief: as §1

Row | SMILES | MIC P. aeruginosa PAO1 [1] [µg/mL] | MIC E. coli DH5α [2] [µg/mL] | MIC B. subtilis BR151 [3] [µg/mL]
1 | CCCCCCCCCC(=O)NCCCC[C@H](NC(=O)[C@H](CC(C)C)NC(=O)[C@H](CCCCN)NC(=O)[C@H](CCCCNC(=O)[C@H](CC(C)C)NC(=O)[C@H](CCCCN)NC(=O)[C@H](CCCCNC(=O)[C@H](CC(C)C)NC(=O)[C@H](CCCCN)NC(=O)[C@H](CCCCNC(=O)[C@H](CC(C)C)NC(=O)[C@@H](N)CCCCN)NC(=O)[C@H](CC(C)C)NC(=O)[C@@H](N)CCCCN)NC(=O)[C@H](CC(C)C)NC(=O)[C@H](CCCCN)NC(=O)[C@H](CCCCNC(=O)[C@H](CC(C)C)NC(=O)[C@@H](N)CCCCN)NC(=O)[C@H](CC(C)C)NC(=O)[C@@H](N)CCCCN)NC(=O)[C@H](CC(C)C)NC(=O)[C@H](CCCCN)NC(=O)[C@H](CCCCNC(=O)[C@H](CC(C)C)NC(=O)[C@H](CCCCN)NC(=O)[C@H](CCCCNC(=O)[C@H](CC(C)C)NC(=O)[C@@H](N)CCCCN)NC(=O)[C@H](CC(C)C)NC(=O)[C@@H](N)CCCCN)NC(=O)[C@H](CC(C)C)NC(=O)[C@H](CCCCN)NC(=O)[C@H](CCCCNC(=O)[C@H](CC(C)C)NC(=O)[C@@H](N)CCCCN)NC(=O)[C@H](CC(C)C)NC(=O)[C@@H](N)CCCCN)C(N)=O [MSt-266, (KL)8(KKL)4(KKL)2(KKLKC10)] (I: H-KLK([Leu-Lys])KLKKLKKLK(Decanoyl)-NH2 / II: H-KLK([Leu-Lys])KLKKL / III: H-KLK([Leu-Lys])KL / IV: H-KLK([Leu-Lys])KL; amide I:6-IV:C, I:9-II:C, II:6-III:C) | 1 (≈ 0.208 µM) | 1 (≈ 0.208 µM) | 4 (≈ 0.83 µM)
2 | CCCCCCCC(=O)NCCCC[C@H](NC(=O)[C@H](CC(C)C)NC(=O)[C@H](CCCCN)NC(=O)[C@H](CCCCNC(=O)[C@H](CC(C)C)NC(=O)[C@H](CCCCN)NC(=O)[C@H](CCCCNC(=O)[C@H](CC(C)C)NC(=O)[C@@H](N)CCCCN)NC(=O)[C@H](CC(C)C)NC(=O)[C@@H](N)CCCCN)NC(=O)[C@H](CC(C)C)NC(=O)[C@H](CCCCN)NC(=O)[C@H](CCCCNC(=O)[C@H](CC(C)C)NC(=O)[C@@H](N)CCCCN)NC(=O)[C@H](CC(C)C)NC(=O)[C@@H](N)CCCCN)C(N)=O [MSt-261, (KL)4(KKL)2(KKLKC8)] (I: H-KLK([Leu-Lys])KLKKLK(Octanoyl)-NH2 / II: H-KLK([Leu-Lys])KL; amide I:6-II:C) | 1 (≈ 0.426 µM) | 1 (≈ 0.426 µM) | 4 (≈ 1.71 µM)
3 | CCCCCC(=O)N[C@@H](CCCCN)C(=O)N[C@@H](CC(C)C)C(=O)NCCCC[C@H](NC(=O)[C@H](CC(C)C)NC(=O)[C@H](CCCCN)NC(=O)CCCCC)C(=O)N[C@@H](CCCCN)C(=O)N[C@@H](CC(C)C)C(=O)NCCCC[C@H](NC(=O)[C@H](CC(C)C)NC(=O)[C@H](CCCCN)NC(=O)[C@H](CCCCNC(=O)[C@H](CC(C)C)NC(=O)[C@H](CCCCN)NC(=O)CCCCC)NC(=O)[C@H](CC(C)C)NC(=O)[C@H](CCCCN)NC(=O)CCCCC)C(=O)N[C@@H](CCCCN)C(=O)N[C@@H](CC(C)C)C(=O)NCCCC[C@H](NC(=O)[C@H](CC(C)C)NC(=O)[C@H](CCCCN)NC(=O)[C@H](CCCCNC(=O)[C@H](CC(C)C)NC(=O)[C@H](CCCCN)NC(=O)[C@H](CCCCNC(=O)[C@H](CC(C)C)NC(=O)[C@H](CCCCN)NC(=O)CCCCC)NC(=O)[C@H](CC(C)C)NC(=O)[C@H](CCCCN)NC(=O)CCCCC)NC(=O)[C@H](CC(C)C)NC(=O)[C@H](CCCCN)NC(=O)[C@H](CCCCNC(=O)[C@H](CC(C)C)NC(=O)[C@H](CCCCN)NC(=O)CCCCC)NC(=O)[C@H](CC(C)C)NC(=O)[C@H](CCCCN)NC(=O)CCCCC)C(=O)N[C@@H](CCCCN)C(=O)N[C@@H](CC(C)C)C(N)=O [MSt-288, (C6KL)8(KKL)4(KKL)2(KKL)] (I: Hexanoyl-KLK([Leu-Lys-Hexanoyl])KLKKLKKL-NH2 / II: Hexanoyl-KLK([Leu-Lys-Hexanoyl])KLKKL / III: Hexanoyl-KLK([Leu-Lys-Hexanoyl])KL / IV: Hexanoyl-KLK([Leu-Lys-Hexanoyl])KL; amide I:6-IV:C, I:9-II:C, II:6-III:C) | 2 (≈ 0.376 µM) | 5 (≈ 0.94 µM) | 1 (≈ 0.188 µM)
4 | NCCCC[C@H](NC(=O)[C@H](CCCCNC(=O)[C@H](Cc1c[nH]c2ccccc12)NC(=O)[C@H](CCCCN)NC(=O)[C@H](CCCCNC(=O)[C@H](Cc1c[nH]c2ccccc12)NC(=O)[C@H](CCCCN)NC(=O)[C@H](CCCCNC(=O)[C@H](Cc1c[nH]c2ccccc12)NC(=O)[C@@H](N)CCCCN)NC(=O)[C@H](Cc1c[nH]c2ccccc12)NC(=O)[C@@H](N)CCCCN)NC(=O)[C@H](Cc1c[nH]c2ccccc12)NC(=O)[C@H](CCCCN)NC(=O)[C@H](CCCCNC(=O)[C@H](Cc1c[nH]c2ccccc12)NC(=O)[C@@H](N)CCCCN)NC(=O)[C@H](Cc1c[nH]c2ccccc12)NC(=O)[C@@H](N)CCCCN)NC(=O)[C@H](Cc1c[nH]c2ccccc12)NC(=O)[C@H](CCCCN)NC(=O)[C@H](CCCCNC(=O)[C@H](Cc1c[nH]c2ccccc12)NC(=O)[C@H](CCCCN)NC(=O)[C@H](CCCCNC(=O)[C@H](Cc1c[nH]c2ccccc12)NC(=O)[C@@H](N)CCCCN)NC(=O)[C@H](Cc1c[nH]c2ccccc12)NC(=O)[C@@H](N)CCCCN)NC(=O)[C@H](Cc1c[nH]c2ccccc12)NC(=O)[C@H](CCCCN)NC(=O)[C@H](CCCCNC(=O)[C@H](Cc1c[nH]c2ccccc12)NC(=O)[C@@H](N)CCCCN)NC(=O)[C@H](Cc1c[nH]c2ccccc12)NC(=O)[C@@H](N)CCCCN)C(=O)N[C@@H](Cc1c[nH]c2ccccc12)C(N)=O [MSt-172, (KW)8(KKW)4(KKW)2(KKW)] (I: H-KWK([Trp-Lys])KWKKWKKW-NH2 / II: H-KWK([Trp-Lys])KWKKW / III: H-KWK([Trp-Lys])KW / IV: H-KWK([Trp-Lys])KW; amide I:6-IV:C, I:9-II:C, II:6-III:C; N-terminus assumed) | 12 (≈ 2.13 µM) | 7 (≈ 1.24 µM) | 6 (≈ 1.07 µM)
5 | CC(C)C[C@H](NC(=O)[C@H](CC(C)C)NC(=O)[C@H](CCCCNC(=O)[C@H](CCCCN)NC(=O)[C@H](CCCCN)NC(=O)[C@H](CCCCNC(=O)[C@H](CC(C)C)NC(=O)[C@@H](N)CC(C)C)NC(=O)[C@H](CC(C)C)NC(=O)[C@@H](N)CC(C)C)NC(=O)[C@H](CCCCN)NC(=O)[C@H](CCCCN)NC(=O)[C@H](CCCCNC(=O)[C@H](CC(C)C)NC(=O)[C@@H](N)CC(C)C)NC(=O)[C@H](CC(C)C)NC(=O)[C@@H](N)CC(C)C)C(=O)NCCCC[C@H](NC(=O)[C@H](CC(C)C)NC(=O)[C@H](CC(C)C)NC(=O)[C@H](CCCCNC(=O)[C@H](CCCCN)NC(=O)[C@H](CCCCN)NC(=O)[C@H](CCCCNC(=O)[C@H](CC(C)C)NC(=O)[C@@H](N)CC(C)C)NC(=O)[C@H](CC(C)C)NC(=O)[C@@H](N)CC(C)C)NC(=O)[C@H](CCCCN)NC(=O)[C@H](CCCCN)NC(=O)[C@H](CCCCNC(=O)[C@H](CC(C)C)NC(=O)[C@@H](N)CC(C)C)NC(=O)[C@H](CC(C)C)NC(=O)[C@@H](N)CC(C)C)C(=O)N[C@@H](CCCCN)C(=O)N[C@@H](CCCCN)C(N)=O [MSt-180, (LL)8(KKK)4(KLL)2(KKK)] (I: H-LLK([Leu-Leu])KKKLLKKK-NH2 / II: H-LLK([Leu-Leu])KKKLL / III: H-LLK([Leu-Leu])KK / IV: H-LLK([Leu-Leu])KK; amide I:6-IV:C, I:9-II:C, II:6-III:C) | 12 (≈ 2.69 µM) | >62 | 3 (≈ 0.673 µM)
6 | CC(C)C[C@H](NC(=O)[C@H](CCN)NC(=O)[C@H](CCCCNC(=O)[C@H](Cc1c[nH]c2ccccc12)NC(=O)[C@H](CCN)NC(=O)[C@H](CCCCNC(=O)[C@H](CC(C)C)NC(=O)[C@@H](N)CCN)NC(=O)[C@H](CC(C)C)NC(=O)[C@@H](N)CCN)NC(=O)[C@H](Cc1c[nH]c2ccccc12)NC(=O)[C@H](CCN)NC(=O)[C@H](CCCCNC(=O)[C@H](CC(C)C)NC(=O)[C@@H](N)CCN)NC(=O)[C@H](CC(C)C)NC(=O)[C@@H](N)CCN)C(=O)NCCCC[C@H](NC(=O)[C@H](CC(C)C)NC(=O)[C@H](CCN)NC(=O)[C@H](CCCCNC(=O)[C@H](Cc1c[nH]c2ccccc12)NC(=O)[C@H](CCN)NC(=O)[C@H](CCCCNC(=O)[C@H](CC(C)C)NC(=O)[C@@H](N)CCN)NC(=O)[C@H](CC(C)C)NC(=O)[C@@H](N)CCN)NC(=O)[C@H](Cc1c[nH]c2ccccc12)NC(=O)[C@H](CCN)NC(=O)[C@H](CCCCNC(=O)[C@H](CC(C)C)NC(=O)[C@@H](N)CCN)NC(=O)[C@H](CC(C)C)NC(=O)[C@@H](N)CCN)C(=O)N[C@@H](CCN)C(=O)N[C@@H](Cc1c[nH]c2ccccc12)C(N)=O [MSt-202, (DabL)8(KDabW)4(KDabL)2(KDabW)] (I: H-[Dab]LK([Leu-Dab])[Dab]WK[Dab]LK[Dab]W-NH2 / II: H-[Dab]LK([Leu-Dab])[Dab]WK[Dab]L / III: H-[Dab]LK([Leu-Dab])[Dab]W / IV: H-[Dab]LK([Leu-Dab])[Dab]W; amide I:6-IV:C, I:9-II:C, II:6-III:C; N-terminus assumed) | 2 (≈ 0.447 µM) | 1 (≈ 0.223 µM) | 1 (≈ 0.223 µM)
